Data set [1] deals with Fluoroquinolone Sensitive Strains. Description: In-vitro antimicrobial test (MIC, two-fold serial agar dilution, NCCLS), Table 17. It is filed as cell-based. Here is the method: The test method was in accordance with the standard NCCLS protocol (Methods for Dilution Antimicrobial Susceptibility Tests for Bacteria that grow Aerobicially, Approved Standards, M7-A5, Fifth Edition, January 2000).
The antibacterial activities (minimum inhibitory concentration: MIC, […]) were determined by using the two-fold serial agar dilution method recommended by NCCLS. The media used for preculture and main culture were Tryptic Soya broth (Difco) and Mueller Hinton medium (Difco), respectively. The Mueller Hinton agar was supplemented with 5% sheep blood for streptococci. Overnight cultures were diluted with buffered saline (pH 7.2) to the final cell density of 5×10^6-10^7 CFU/ml, and each bacterial suspension was applied with a replicator (Denley's multipoint inoculator, UK) onto a series of Mueller-Hinton agar plates containing antibacterial agents at various concentrations. Final inoculum was approximately 10^4 CFU/spot. The plates were incubated for 18 hrs at 37° C. The MIC was defined as the lowest concentration of an antibacterial agent that inhibits the development of visible microbial growth on agar.
In general terms: In agar dilution, organisms are placed on agar that contains the substance at set levels.

Setting [2] is: Escherichia coli, ATCC25922, E. coli ATCC 25922.
Where [3] appears, read: Staphylococcus aureus, ATCC 25923 / MSSA, MSSA ATCC 25923.
Setting [4] is: Streptococcus pneumoniae, ATCC49619, S. pneumoniae ATCC 49619.

By MIC is commonly meant the lowest concentration that inhibits growth of the organism. A low value points to a more susceptible organism. Usually melting point stands for the temperature of the solid-liquid transition.

In brackets after ≈: the same amount, converted by molar mass.

As for `Cc1c(N2CCC(O)C(C)C2)c(F)cc2c(=O)c(C(=O)O)cn(C3CC3)c12` (mixture of isomers) [Compound 92, cis/trans-1-Cyclopropyl-6-fluoro-8-methyl-7-(4-hydroxy-3-methyl-1-piperidinyl)-1,4-dihydro-4-oxo-quinoline-3-carboxylic acid], the results for the MICs in data set [1] (E. coli ATCC 25922) and in data set [1] (MSSA ATCC 25923) were 0.05 µg/mL and 0.1 µg/mL, respectively.
As for `COc1c(N2CCC(N)C(C)(C)C2)c(F)cc2c(=O)c(C(=O)O)cn(C3CC3)c12` (racemic) [Compound 17, (±)-1-Cyclopropyl-6-fluoro-1,4-dihydro-8-methoxy-7-(4-amino-3,3-dimethyl-1-piperidinyl)-4-oxo-quinoline-3-carboxylic acid], the MIC in data set [1] (setting [2]) and in data set [1] (setting [3]) was 0.4 µg/mL (≈ 0.991 µM) each time.
For `COc1c(N2CCC(NC(=O)OCc3ccccc3)C(C)(C)C2)c(F)cc2c(=O)c(C(=O)O)cn(C3CC3)c12` (racemic) [Compound 32, (±)-1-Cyclopropyl-6-fluoro-1,4-dihydro-8-methoxy-7-(4-benzyloxycarbonylamino-3,3-dimethyl-1-piperidinyl)-4-oxo-quinoline-3-carboxylic acid], the melting point was 158 to 160 °C.
Consider `Cc1c(N2CCC(N)C(C)(C)C2)c(F)cc2c(=O)c(C(=O)O)cn(C3CC3)c12` (racemic) [Compound 101, (±)-1-Cyclopropyl-6-fluoro-1,4-dihydro-8-methyl-7-(4-amino-3,3-dimethyl-1-piperidinyl)-4-oxo-quinoline-3-carboxylic acid], for which the melting point was in the range of 198 to 200 °C.
On to `Cc1c(N2CCC(N)C(C)(C)C2)c(F)c(N)c2c(=O)c(C(=O)O)cn(C3CC3)c12` (racemic) [Compound 131, (±)-5-Amino-1-cyclopropyl-6-fluoro-1,4-dihydro-8-methyl-7-(4-amino-3,3-dimethyl-1-piperidinyl)-4-oxo-quinoline-3-carboxylic acid], for which the MIC in data set [1] (setting [2]) is 1.56 µg/mL (≈ 3.88 µM); in data set [1] (setting [3]), 0.8 µg/mL (≈ 1.99 µM).
The compound `Cc1c(N2CCC(N)C(C)(C)C2)c(F)cc2c(=O)c(C(=O)O)cn(C3CC3)c12.Cl` (racemic) [Example 97] came in with a melting point of 242 to 244 °C.
`COc1c(N2CC[C@@H](N)[C@H](C)C2)c(F)cc2c(=O)c(C(=O)O)cn(C3CC3)c12` (relative stereo) [Compound 2, trans-1-Cyclopropyl-6-fluoro-1,4-dihydro-8-methoxy-7-(4-amino-3-methyl-1-piperidinyl)-4-oxo-quinoline-3carboxylic acid] came in with a melting point of 240 to 242 °C.
The same measure, in the same setting: as for `COc1c(N2CC[C@H](N)[C@H](C)C2)c(F)cc2c(=O)c(C(=O)O)cn(C3CC3)c12` (relative stereo) [Compound 5, cis-1-Cyclopropyl-6-fluoro-1,4-dihydro-8-methoxy-7-(4-amino-3-methyl-1-piperidinyl)-4-oxo-quinoline-3-carboxylic acid], the figure is 246 to 250 °C.
The same measure, in the same setting: to `Cc1c(N2CC[C@H](N)[C@H](C)C2)c(F)cc2c(=O)c(C(=O)O)cn(C3CC3)c12` (relative stereo) [Compound 99, cis-1-Cyclopropyl-6-fluoro-1,4-dihydro-8-methyl-7-(4-amino-3-methyl-1-piperidinyl)-4-oxo-quinoline-3-carboxylic acid] belongs 224 to 228 °C.
On to `CCc1c(N2CC[C@H](O)[C@H](C)C2)c(F)cc2c(=O)c(C(=O)O)cn(C3CC3)c12` (relative stereo) [Compound 120, cis-1-Cyclopropyl-6-fluoro-8-ethyl-7-(4-hydroxy-3-methyl-1-piperidinyl)-1,4-dihydro-4-oxo-quinoline-3-carboxylic acid], for which the MIC came to 0.8 µg/mL (≈ 2.06 µM) in data set [1] (setting [2]), 0.1 µg/mL (≈ 0.257 µM) in data set [1] (setting [3]) and 0.8 µg/mL (≈ 2.06 µM) in data set [1] (setting [4]).
As for `Cc1c(N2CCC(N)C(C)(C)C2)c(F)cc2c(=O)c(C(=O)O)cn(C3CC3)c12` (single isomer, unassigned; (-)) [Compound 109, (−)-1-Cyclopropyl-6-fluoro-1,4-dihydro-8-methyl-7-(4-amino-3,3-dimethyl-1-piperidinyl)-4-oxo-quinoline-3-carboxylic acid], the melting point was 195 to 198 °C.
With `Cc1c(N2CCC(N)C(C)(C)C2)c(F)c(N)c2c(=O)c(C(=O)O)cn(C3CC3)c12` (single isomer, unassigned; (-)) [Compound 133, (−)-5-Amino-1-cyclopropyl-6-fluoro-1,4-dihydro-8-methyl-7-(4-amino-3,3-dimethyl-1-piperidinyl)-4-oxo-quinoline-3-carboxylic acid], the MIC worked out at 0.4 µg/mL (≈ 0.994 µM) in data set [1] (setting [2]), 0.025 µg/mL (≈ 0.0621 µM) in data set [1] (setting [3]) and 0.2 µg/mL (≈ 0.497 µM) in data set [1] (setting [4]).
In the case of `CNC1CCN(c2c(F)cc3c(=O)c(C(=O)O)cn(C4CC4)c3c2OC)CC1C` (stereo not shown) [Compound 8, 1-Cyclopropyl-6-fluoro-1,4-dihydro-8-methoxy-7-(4-methylamino-3-methyl-1-piperidinyl)-4-oxo-quinoline-3-carboxylic acid], the melting point is 240 °C (dec.).
The same measure, in the same setting: to `CCNC1CCN(c2c(F)cc3c(=O)c(C(=O)O)cn(C4CC4)c3c2OC)CC1C` (stereo not shown) [Compound 10, 1-Cyclopropyl-6-fluoro-1,4-dihydro-8-methoxy-7-(4-ethylamino-3-methyl-1-piperidinyl)-4-oxo-quinoline-3-carboxylic acid] belongs 160 to 162 °C.
On to `COc1c(N2CCC(NC3CC3)C(C)C2)c(F)cc2c(=O)c(C(=O)O)cn(C3CC3)c12` (stereo not shown) [Compound 11, 1-Cyclopropyl-6-fluoro-1,4-dihydro-8-methoxy-7-(4-cyclopropylamino-3-methyl-1-piperidinyl)-4-oxo-quinoline-3-carboxylic acid], for which the melting point lay in the range of 182 to 184 °C.
Same read-out and setting: to `COc1c(N2CCC(N(C)C)C(C)C2)c(F)cc2c(=O)c(C(=O)O)cn(C3CC3)c12` (stereo not shown) [Compound 13, 1-Cyclopropyl-6-fluoro-1,4-dihydro-8-methoxy-7-(4-dimethylamino-3-methyl-1-piperidinyl)-4-oxo-quinoline-3-carboxylic acid] belongs 180 to 182 °C.
On the same count and under the same terms, to `COc1c(N2CCC(NC(C)=O)C(C)(C)C2)c(F)cc2c(=O)c(C(=O)O)cn(C3CC3)c12` (stereo not shown) [Compound 29, 1-Cyclopropyl-6-fluoro-1,4-dihydro-8-methoxy-7-(4-acetylamino-3,3-dimethyl-1-piperidinyl)-4-oxo-quinoline-3-carboxylic acid] belongs 194 to 196 °C; to `CNC1CCN(c2c(F)cc3c(=O)c(C(=O)O)cn(C4CC4)c3c2OC)CC1(C)C` (stereo not shown) [Compound 35, 1-Cyclopropyl-6-fluoro-1,4-dihydro-8-methoxy-7-(4-methylamino-3,3-dimethyl-1-piperidinyl)-4-oxo-quinoline-3-carboxylic acid], 246 to 248 °C.
On to `CCn1cc(C(=O)O)c(=O)c2cc(F)c(N3CC(C)C(NC)C(C)C3)c(OC)c21` (stereo not shown) [Compound 46, 1-Ethyl-6-fluoro-1,4-dihydro-8-methoxy-7-(4-methylamino-3,5-dimethyl-1-piperidinyl)-4-oxo-quinoline-3-carboxylic acid], for which the values for the MIC in data set [1] (setting [2]), in data set [1] (setting [3]) and in data set [1] (setting [4]) were 0.1 µg/mL (≈ 0.247 µM), 0.05 µg/mL (≈ 0.123 µM) and 0.1 µg/mL (≈ 0.247 µM), respectively.
Turning to `COc1c(N2CC(C)C(NC3CC3)C(C)C2)c(F)cc2c(=O)c(C(=O)O)cn(C3CC3)c12` (stereo not shown) [Compound 48, 1-Cyclopropyl-6-fluoro-1,4-dihydro-8-methoxy-7-(4-cyclopropylamino-3,5-dimethyl-1-piperidinyl)-4-oxo-quinoline-3-carboxylic acid], the figures for the MIC in data set [1] (setting [2]), in data set [1] (setting [3]) and in data set [1] (setting [4]) were 6.25 µg/mL (≈ 14.1 µM), 1.56 µg/mL (≈ 3.52 µM) and > 6.25 µg/mL, respectively.
On to `CCOC(=O)NC1CCN(c2c(F)c(N)c3c(=O)c(C(=O)O)cn(C4CC4)c3c2OC)CC1(C)C` (stereo not shown) [Compound 70, 5-Amino-1-cyclopropyl-6-fluoro-1,4-dihydro-8-methoxy-7-(4-ethoxycarbonylamino-3,3-dimethyl-1-piperidinyl)-4-oxo-quinoline-3-carboxylic acid], for which the MIC is 0.4 µg/mL (≈ 0.815 µM) in data set [1] (setting [2]), 0.05 µg/mL (≈ 0.102 µM) in data set [1] (setting [3]) and 0.2 µg/mL (≈ 0.408 µM) in data set [1] (setting [4]).
In the case of `COc1c(N2CCC(NC3CC3)C(C)(C)C2)c(F)c(N)c2c(=O)c(C(=O)O)cn(C3CC3)c12` (stereo not shown) [Compound 75, 5-Amino-1-cyclopropyl-6-fluoro-1,4-dihydro-8-methoxy-7-(4-cyclopropylamino-3,3-dimethyl-1-piperidinyl)-4-oxo-quinoline-3-carboxylic acid], the MIC in data set [1] (setting [2]) came to 0.2 µg/mL (≈ 0.436 µM); in data set [1] (setting [3]) it was 0.05 µg/mL (≈ 0.109 µM); in data set [1] (setting [4]), 0.2 µg/mL (≈ 0.436 µM).
`COc1c(N2CC(C)C(O)C(C)C2)c(F)cc2c(=O)c(C(=O)O)cn(C3CC3)c12` (stereo not shown) [Compound 145, 1-Cyclopropyl-6-fluoro-1,4-dihydro-8-methoxy-7-(4-hydroxy-3,5-dimethyl-1-piperidinyl)-4-oxo-quinoline-3-carboxylic acid]: the values for the MIC in data set [1] (setting [2]), in data set [1] (setting [3]) and in data set [1] (setting [4]) were 1.56 µg/mL (≈ 3.86 µM), 0.025 µg/mL (≈ 0.0618 µM) and 0.4 µg/mL (≈ 0.989 µM), respectively.
Turning to `COc1c(N2CC(C)C(O)C(C)(C)C2)c(F)cc2c(=O)c(C(=O)O)cn(C3CC3)c12` (stereo not shown) [Compound 147, 1-Cyclopropyl-6-fluoro-1,4-dihydro-8-methoxy-7-(4-hydroxy-3,3,5-trimethyl-1-piperidinyl)-4-oxo-quinoline-3-carboxylic acid], the MIC in data set [1] (setting [2]) is 0.4 µg/mL (≈ 0.956 µM); in data set [1] (setting [3]), < 0.006 µg/mL; in data set [1] (setting [4]), 0.1 µg/mL (≈ 0.239 µM).
